Experiments:
[1] = biological target: GFLOMT1 (Glaucium flavum, UniProt A0A0H4IRD0); experiment: Standard OMT assay, substrate specificity of recombinant GFLOMT1; type: biochemical; conditions: for conversion of substrate by GFLOMT1: standard OMT assay, in the presence of SAM; for Substrate specificity, enzyme GFLOMT1: substrate conversion in the standard OMT assay in the presence of SAM (percent)
From the text: (§1) Full-length cDNAs for the seven GFLOMT candidates (see: Example 6) were cloned into the pRSETA expression vector with an N-terminal His_tag translational fusion and expressed in E. coli. Recombinant GFLOMTs were purified from total protein extracts using a cobalt-affinity resin.

[2] = biological target: T1, GFLOMT2 (Glaucium flavum, UniProt A0A0H4ILZ3); experiment: Standard OMT assay, substrate specificity of recombinant GFLOMT2; type: biochemical; conditions: for conversion of substrate by GFLOMT2: standard OMT assay; for Substrate specificity, enzyme GFLOMT2: substrate conversion in the standard OMT assay (percent)
T1 sequence (A0A0H4ILZ3 1-348): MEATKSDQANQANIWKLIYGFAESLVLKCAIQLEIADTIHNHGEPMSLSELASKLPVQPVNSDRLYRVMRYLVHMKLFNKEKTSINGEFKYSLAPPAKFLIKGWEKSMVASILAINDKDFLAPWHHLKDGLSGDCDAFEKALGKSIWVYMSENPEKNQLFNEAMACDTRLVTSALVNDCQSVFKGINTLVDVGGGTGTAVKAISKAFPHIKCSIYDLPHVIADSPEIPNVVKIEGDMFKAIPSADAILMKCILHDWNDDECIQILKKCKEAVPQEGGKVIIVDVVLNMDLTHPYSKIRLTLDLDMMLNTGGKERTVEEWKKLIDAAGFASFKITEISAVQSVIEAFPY
From the text: as §1

[3] = biological target: GFLOMT6 (Glaucium flavum, UniProt A0A0H4IRD2); experiment: Standard OMT assay, substrate specificity of recombinant GFLOMT6; type: biochemical; conditions: for conversion of substrate by GFLOMT6 / acceptance as substrate by GFLOMT6 (in words): standard OMT assay; for Substrate specificity, enzyme GFLOMT6: substrate conversion in the standard OMT assay (percent)
From the text: as §1

[4] = biological target: T1, GFLOMT2; conditions: read-out: Km of GFLOMT2 for substrate; preferred substrate yielding single reaction product
[5] = test system: GFLOMT7; experiment: Standard OMT assay, substrate specificity of recombinant GFLOMT7; type: biochemical, Glaucium flavum; conditions: for conversion of substrate by GFLOMT7: standard OMT assay; for Substrate specificity, enzyme GFLOMT7: substrate conversion in the standard OMT assay (percent)
From the text: as §1

SMILES | conversion of substrate by GFLOMT1 [1] | Substrate specificity, enzyme GFLOMT1 [1] | conversion of substrate by GFLOMT2 [2] | Substrate specificity, enzyme GFLOMT2 [2] | conversion of substrate by GFLOMT6 [3] | Substrate specificity, enzyme GFLOMT6 [3] | acceptance as substrate by GFLOMT6 (in words) [3] | Km [4] | conversion of substrate by GFLOMT7 [5] | Substrate specificity, enzyme GFLOMT7 [5]
COc1cc2c(cc1O)C(Cc1ccc(O)c(O)c1)N(C)CC2 (racemic) [(R,S)-6-O-Methyllaudanosoline, 6-O-Methyllaudanosoline] | 68% | 68 | 14% | 14 | 23% | 23 | – | – | – | –
COc1cc2c(cc1O)C(Cc1ccc(O)c(O)c1)NCC2 (racemic) [(R,S)-6-O-Methylnorlaudanosoline, 6-O-Methylnorlaudanosoline] | 87% | 87 | 1% | 1 | – | – | did not accept | – | – | –
Oc1ccc(CC2NCCc3cc(O)c(O)cc32)cc1O (racemic) [(R,S)-Norlaudanosoline, Norlaudanosoline] | 96% | 96 | 100% | 100 | – | – | did not accept | 15 µM | – | –
COc1ccc(C[C@@H]2NCCc3cc(OC)c(O)cc32)cc1O (racemic) [(R,S)-Norreticuline, Norreticuline] | – | – | – | – | 36% | 36 | – | – | – | –
COc1cc2c(cc1O)C1Cc3ccc(OC)c(O)c3CN1CC2 (racemic) [(R,S)-Scoulerine, Scoulerine] | 32% | 32 | 75% | 75 | 100% | 100 | – | – | 12% | 12
COc1cc2c(cc1O)[C@@H]1Cc3ccc(OC)c(OC)c3CN1CC2 (racemic) [(R,S)-Tetrahydrocolubamine, Tetrahydrocolumbamine] | 19% | 19 | 32% | 32 | 90% | 91 | – | – | 8% | 8
COc1ccc(C[C@H]2c3cc(O)c(OC)cc3CCN2C)cc1O [(S)-Reticuline, Reticuline] | 6% | 6 | 22% | 22 | 97% | 97 | – | – | – | –

— US10487345B2, “Methods for making and using polynucleotide sequences in the synthesis of alkaloid compounds” (priority 2014, dated 2019)
